Columns and labels:
[1] = tested on: generalized trembling caused by dl-5-hydroxytryptophane; experiment: Test A: potentiation in mice of generalized trembling caused by intraperitoneal injection of dl-5-hydroxytryptophane; type: in vivo; details: Mus musculus, po, dl-5-hydroxytryptophane 200 mg/kg intraperitoneal, read-out: Test A ED 50
Description: Test A: potentiation in mice of generalized trembling caused by an intraperitoneal injection (200 mg/kg) of dl-5-hydroxytryptophane, according to the procedure described by Gouret C. and Raynaud G. in J. Pharmacol. (Paris) (1974), 5, 231.

ptosis after reserpine = experiment: Test B: antagonism of ptosis observed an hour after intravenous injection of reserpine in mice; type: in vivo; details: Mus musculus, po, ptosis an hour after reserpine 2 mg/kg intravenous, read-out: Test B ED 50
Description: Test B: antagonism with respect to ptosis observed an hour after an intravenous injection (2 mg/kg) of reserpine in mice according to the procedure described by Gouret C. and Thomas J. in J. Pharmacol. (Paris), (1973), 4, 401.

Toxicity (mice) = details: mouse, in vivo, po, read-out: Toxicity (mice) LD 50

Structure (SMILES) | ED50 [1] [mg/kg] | ED50 (ptosis after reserpine) [mg/kg] | LD50 (Toxicity (mice)) [mg/kg]
COCC1CN(c2ccc(CC(=O)c3cccc(C#N)c3)cc2)C(=O)O1 (centres unmarked) [compound 270] | 0.2 | 0.2 | > 1000
COCC1CN(c2ccc(CC(=O)c3cccc(Cl)c3)cc2)C(=O)O1 (centres unmarked) [compound 274] | 1.2 | 0.9 | > 1000
COCC1CN(c2ccc(-c3cccc(C#N)c3)cc2)C(=O)O1 (centres unmarked) [compound 284] | 1.2 | 1.3 | > 1000
COCC1CN(c2ccc(OCCC(C)=O)cc2)C(=O)O1 (centres unmarked) [compound 238] | 1.9 | 1.1 | > 1000
COCC1CN(c2ccc(CCc3cccc(Cl)c3)cc2)C(=O)O1 (centres unmarked) [compound 271] | 4.1 | 3.8 | > 1000
COCC1CN(c2ccc(CCCCCC#N)cc2)C(=O)O1 (centres unmarked) [compound 289] | 0.15 | 0.2 | > 1000
COCC1CN(c2ccc(OCCc3cccc(Cl)c3)cc2)C(=O)O1 (centres unmarked) [compound 264] | 2.8 | 3 | > 1000
COCC1CN(c2ccc(COc3cccc(C#N)c3)cc2)C(=O)O1 (centres unmarked) [compound 275] | 0.6 | 0.3 | > 1000
COCC1CN(c2ccc(-c3ccc(Cl)cc3)cc2)C(=O)O1 (centres unmarked) [compound 269] | 1.7 | 1.2 | > 1000
COCC1CN(c2ccc(COc3cccc(Cl)c3)cc2)C(=O)O1 (centres unmarked) [compound 273] | 5.9 | 3.4 | > 1000
COCC1CN(c2ccc(C#Cc3cccc(C#N)c3)cc2)C(=O)O1 (centres unmarked) [compound 282] | 0.3 | 0.3 | > 1000
COCC1CN(c2ccc(OCCc3cccc(C#N)c3)cc2)C(=O)O1 (centres unmarked) [compound 267] | 1.8 | 1.3 | > 1000
COCC1CN(c2ccc(C#CC3CCCCC3)cc2)C(=O)O1 (centres unmarked) [compound 281] | 1.3 | 0.6 | > 1000
COCC1CN(c2ccc(CCc3cccc(C#N)c3)cc2)C(=O)O1 (centres unmarked) [compound 272] | 0.5 | 0.4 | > 1000
Cc1cccc(N2CC(CO)OC2=O)c1 (centres unmarked) [TOLOXATONE, reference compound] | 60 | 50 | –
COCC1CN(c2ccc(C#Cc3cccc(Cl)c3)cc2)C(=O)O1 (centres unmarked) [compound 277] | 1.2 | 1.7 | > 1000
